According to patent publication US9410148B2, “Method for constructing libraries of non-standard peptide compounds comprising N-methyl amino acids and other special (non-standard) amino acids and method for searching and identifying active species” (THE UNIVERSITY OF TOKYO, priority 2010, dated 2016):
One block for each molecule: values may come before it. Bridge positions count the residues as written; N and C are the ends. Square brackets hold non-standard residues; d marks the D form. Peptide text beside a SMILES is read from it. NMeF = CN[C@@H](Cc1ccccc1)C(=O)O; NMeS = CN[C@@H](CO)C(=O)O; Sar = CNCC(=O)O

Columns and labels:
E6AP-HECT [1] = target: T1, E6AP-HECT (Homo sapiens, UniProt Q05086); assay: Determination of binding constant using SPR (BIACORE T100, streptavidin sensor chip)
T1 construct: The C terminal domain of E6AP, consisting of about 350 amino acid residues, is called the HECT
T1 sequence (Q05086 495-852 isoform Q05086-2 limits assumed): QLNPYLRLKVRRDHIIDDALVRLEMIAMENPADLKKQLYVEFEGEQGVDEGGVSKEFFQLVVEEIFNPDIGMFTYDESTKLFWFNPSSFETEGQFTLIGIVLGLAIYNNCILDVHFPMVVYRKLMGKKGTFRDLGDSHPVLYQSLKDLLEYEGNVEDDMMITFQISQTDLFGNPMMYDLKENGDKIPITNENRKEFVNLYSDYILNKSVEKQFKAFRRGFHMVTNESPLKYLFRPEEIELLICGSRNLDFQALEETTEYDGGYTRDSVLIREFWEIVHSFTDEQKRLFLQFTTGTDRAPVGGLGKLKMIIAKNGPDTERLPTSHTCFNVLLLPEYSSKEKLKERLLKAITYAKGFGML
Protocol: The binding constant of MCP11 to E6AP-HECT was analyzed by a surface plasmon resonance using BIACORE T100.
A streptavidin sensor chip (SA chip certified) was used as a sensor chip, an Avi-His-GB1-E6AP-HECT was used as a ligand, and MCP11 was used as an analyte. After E6AP-HECT was fixed to a sensor chip, the KD of MCP11 was 0.5 nM.

E6AP-HECT [2] = target: T2, E6AP-HECT (Homo sapiens, UniProt Q05086); assay: KD / nM
T2 construct: The C terminal domain of E6AP, consisting of about 350 amino acid residues, is called the HECT
From the text: Table printed on a drawing sheet, Figure 5-4
Head of the field: KD / nM
Biotinylated E6AP-HECT was fixed to the streptavidin chip to analyze affinity using the peptides. (Example 7)
First copying reader's note: Brackets drawn under MCP11 and CP11 link the N-terminal CH2CO to the second Cys (cyclic peptides); the raised Me marks and underlining denote N-methyl residues.
Where the first naming reader finds the target: description_of_the_figure: Biotinylated E6AP-HECT was fixed to the streptavidin chip to analyze affinity using the peptides.
T2 sequence (Q05086 whole entry, looked up, the tested form may be a part): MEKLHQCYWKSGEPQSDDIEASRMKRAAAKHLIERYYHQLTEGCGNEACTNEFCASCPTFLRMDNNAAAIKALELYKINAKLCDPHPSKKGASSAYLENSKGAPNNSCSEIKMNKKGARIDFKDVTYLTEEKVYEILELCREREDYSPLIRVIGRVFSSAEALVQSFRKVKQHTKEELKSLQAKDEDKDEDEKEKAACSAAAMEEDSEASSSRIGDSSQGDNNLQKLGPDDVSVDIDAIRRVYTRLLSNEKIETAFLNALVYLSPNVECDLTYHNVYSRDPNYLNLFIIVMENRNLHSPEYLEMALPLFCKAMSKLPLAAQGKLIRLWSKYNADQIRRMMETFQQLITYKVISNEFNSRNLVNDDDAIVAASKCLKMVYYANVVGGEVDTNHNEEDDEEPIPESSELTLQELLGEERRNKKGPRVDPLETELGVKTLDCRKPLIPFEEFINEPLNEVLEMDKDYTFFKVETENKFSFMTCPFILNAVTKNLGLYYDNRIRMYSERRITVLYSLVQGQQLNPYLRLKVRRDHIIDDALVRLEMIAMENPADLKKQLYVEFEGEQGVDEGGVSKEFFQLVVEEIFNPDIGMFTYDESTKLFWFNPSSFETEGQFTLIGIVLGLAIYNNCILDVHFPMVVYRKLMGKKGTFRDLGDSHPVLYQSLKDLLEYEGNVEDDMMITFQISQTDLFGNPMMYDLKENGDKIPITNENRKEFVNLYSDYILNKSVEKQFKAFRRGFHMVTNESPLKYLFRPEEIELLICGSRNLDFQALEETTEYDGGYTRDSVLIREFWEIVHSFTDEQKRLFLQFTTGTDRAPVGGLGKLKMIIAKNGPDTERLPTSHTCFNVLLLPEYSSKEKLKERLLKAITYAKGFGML

Kd (E6AP-HECT [1]; surface plasmon resonance, Avi-His-GB1-E6AP-HECT fixed as ligand, peptide as analyte): 0.0005 µM
Compound: CC(C)[C@@H]1NC(=O)[C@H](CC(=O)O)NC(=O)[C@H](CS)NC(=O)[C@@H](Cc2c[nH]c3ccccc23)NC(=O)CSC[C@@H](C(=O)NCC(N)=O)NC(=O)[C@@H]2CCCN2C(=O)[C@H](Cc2ccccc2)N(C)C(=O)[C@H](Cc2ccc(O)cc2)NC(=O)CN(C)C(=O)[C@H](Cc2ccccc2)N(C)C(=O)[C@H](CCCNC(=N)N)NC(=O)CNC(=O)[C@H](CO)N(C)C1=O [MCP11, Cyclo(-Ac-^DWCDV^MeSGR^MeF^MeGY^MeFPC)G-OH] ({CH2CO}-[dW]CDV[NMeS]GR[NMeF][Sar]Y[NMeF]PCG-NH2; thioether N-13)

Kd (E6AP-HECT [2]): 0.1 to 1 µM
Compound: CC(=O)N[C@H](Cc1c[nH]c2ccccc12)C(=O)N[C@@H](CS)C(=O)N[C@@H](CC(=O)O)C(=O)N[C@H](C(=O)N(C)[C@@H](CO)C(=O)NCC(=O)N[C@@H](CCCNC(=N)N)C(=O)N(C)[C@@H](Cc1ccccc1)C(=O)N(C)CC(=O)N[C@@H](Cc1ccc(O)cc1)C(=O)N(C)[C@@H](Cc1ccccc1)C(=O)N1CCC[C@H]1C(=O)N[C@@H](CS)C(=O)NCC(N)=O)C(C)C [MLP11:, CH3CO-wCDV^MeSGR^MeF^MeGY^MeFPCG-NH2] (Ac-[dW]CDV[NMeS]GR[NMeF][Sar]Y[NMeF]PCG-NH2)

difference in the binding ability (E6AP-HECT [1]; KD of MLP11 relative to MCP11): ≥ 200 times
Compound: CC(=O)N[C@H](Cc1c[nH]c2ccccc12)C(=O)N[C@@H](CS)C(=O)N[C@@H](CC(=O)O)C(=O)N[C@H](C(=O)N(C)[C@@H](CO)C(=O)NCC(=O)N[C@@H](CCCNC(=N)N)C(=O)N(C)[C@@H](Cc1ccccc1)C(=O)N(C)CC(=O)N[C@@H](Cc1ccc(O)cc1)C(=O)N(C)[C@@H](Cc1ccccc1)C(=O)N1CCC[C@H]1C(=O)N[C@@H](CS)C(=O)NCC(N)=O)C(C)C [MLP11] (Ac-[dW]CDV[NMeS]GR[NMeF][Sar]Y[NMeF]PCG-NH2)
